Laboratory results as given in ChEMBL document CHEMBL4190285, “Borapetoside E, a Clerodane Diterpenoid Extracted from Tinospora crispa, Improves Hyperglycemia and Hyperlipidemia in High-Fat-Diet-Induced Type 2 Diabetes Mice” (J Nat Prod, 2017).
Activity calls are given as the source filed them. The calls are words filed in the database; no cut-off is given here.

What was measured:
Mus musculus [1] = assay: Antihyperlipidemic activity in high fat diet-induced obese C57BL/6J mouse assessed as serum triglyceride levels at 20 mg/kg, ip administered twice daily for 2.5 days measured at 2 hrs post last dose (reference value: 1.31 +/- 0.48 mmol/L); format: functional
Mus musculus [2] = assay: Antihyperlipidemic activity in high fat diet-induced obese C57BL/6J mouse assessed as serum LDL-C levels at 20 mg/kg, ip administered twice daily for 2.5 days measured at 2 hrs post last dose (reference value: 2.54 +/- 0.87 mmol/L); format: functional
Mus musculus [3] = assay: Antihyperlipidemic activity in high fat diet-induced obese C57BL/6J mouse assessed as serum triglyceride levels at 40 mg/kg, ip administered twice daily for 2.5 days measured at 2 hrs post last dose (reference value: 1.31 +/- 0.48 mmol/L); format: functional
Mus musculus [4] = assay: Increase in oxygen consumption in HFFD-induced obese C57BL/6J mouse at 40 mg/kg, ip administered twice daily for 2.5 days measured up to 12.6 hrs under dark condition; format: functional, organism-based
Mus musculus [5] = assay: Down regulation of SREBP1 mRNA expression in HFD-induced obese C57BL/6J mouse adipose tissue at 20 to 40 mg/kg, ip administered twice daily for 2.5 days measured at 2 hrs post last dose by RT-PCR analysis; format: functional, organism-based

What does the source list for `COC(=O)C1=CCC[C@H]2[C@](C)(C[C@@H](O[C@@H]3O[C@H](CO)[C@@H](O)[C@H](O)[C@H]3O)c3ccoc3)[C@H]3C[C@H](OC3=O)[C@@]12C`?
Activity (Mus musculus [1]): 1.09 mmol/L; Activity (Mus musculus [2]): 2.21 mmol/L; Activity (Mus musculus [3]): 0.5 mmol/L; Activity (Mus musculus [4]): Active; Activity (Mus musculus [5]): Active
